# Results taken from patent US20170173106A1, “Polypeptide Fragments of 168A-T2 and Compositions Comprising Them for Use in Treating Cancer” (GENE SIGNAL INTERNATIONAL SA, priority 2014, published 2017).
# What was measured:
# HUVECs = assay: Capillaries formation by HUVECs on Matrigel; assay type: cell-based, human; conditions: 6.5 μM, 13 μM and 33 μM, 18 h
# Protocol: Evaluating the formation of capillaries on Matrigel® was performed by angiogenesis test in vitro described in Grant et al (1989 Cell 58, 933-943). Matrigel® was dropped down the wells of the 96 well plates and maintained for 30 min at 37° C. for the Matrigel® solidification. HUVECs cells were then seeded and 50 μL, of peptide added.
# Plates were then incubated for 18 hrs at 37° C. cells were then washed with calcein solution (50 μL/well at 8 μM) and incubated for 20 min. HUVECs alive metabolize calcein in a green fluorescent component.
# Peptides were added to the culture medium (EGM2-MV) at concentrations 6.5 μM, 13 μM and 33 μM after inoculation of cells. Plates were incubated at 37° C. for 18 h. Fluorescence labeling was achieved by addition of calcein. Pictures were shot with a fluorescence microscope equipped with a camera (zoom ×40).
# endostatin = assay: Endostatin production by HUVECs (ELISA); assay type: cell-based, human; conditions: rising concentrations; 48 hrs
# Protocol: HUVECs were transfected with siRNA using transfecting agent GENJET according to the manufacturer's instructions. After 48 hrs of incubation, supernatants were collected, protein expression tested by western blots and endostatin quantified.
# Endostatin levels were quantified by ELISAs on lysates of HUVECs incubated at rising concentrations of P3 or PCT for 48 hrs.
# In order to evaluate the role of metalloproteinases (MMPs) in endostatin production, a polyvalent inhibitor of MMPs, GM6001 was used. The concentration of endostatin in supernatants is at 6.2 ng/mg of protein of the lysates/48 hrs. […] GM6001 inhibits endostatin production induced by P3. MMPs might then be implicated in endostatin production induced by P3.
# HUVECs were incubated for 48 hrs in an EGM2-MV media with an anti-CD151 antibody (11G5a) or an irrelevant antibody (negative control unable to recognize any protein). Then endostatin levels were measured by ELISA in supernatants.
# HUVECs cells were transfected with specific siRNA of CD151 and CD9. Protein expression was analyzed in western blots. In parallel, endostatin levels were measured by ELISA in supernatants. […] Levels of endostatin in supernatant of HUVECs cells transfected with siRNA were measured. […] On the contrary, levels of endostatin increased at 9.4 ng/mg of protein lysates/48 hrs in HUVECs depleted in CD151 (FIG. 18B). CD151 is thus involved in the production of endostatin.
sequence,measurement,setting,value
NQKGCYDLVT (control peptide) [PCT],capillary tubes formation (capillaries length and junctions number),HUVECs,no effect
same,level of endostatin compared to the solvent condition,endostatin,does not modify the level of endostatin
